Results from patent publication US20200360531A1, “ANTIBODY DRUG CONJUGATES (ADCS) WITH NAMPT INHIBITORS” (Bayer Aktiengesellschaft, priority 2018, published 2020).
pIC50: −log10 of the molar value. Several values for one entry are separate records, joined by “and”; a condition that tells them apart may be missing. Equal values may be shown once. Read-outs that look alike come from different tables or passages of the source.

How the values were obtained:
human NAMPT = biological target: T1, human NAMPT (Homo sapiens, UniProt P43490); test: NAMPT biochemical assay (hNAMPT IC50), cascade assay with NMNAT1 and NAD/NADH-Glo detection; conditions: Table 2; replicate values on separate lines
T1 construct: N-terminally His6-tagged recombinant full length human NAMPT; His6 (N); made in house; host or cells: E. coli
Text: NAMPT Biochemical Assay (hNAMPT IC50)
Nicotinamide phosphoribosyltransferase (NAMPT) inhibitory activity of compounds of the present invention was quantified employing a cascade assay as described in the following paragraphs. The assay couples the conversion of nicotinamide (NAM) to nicotinamide mononucleotide (NMN) by NAMPT with the conversion of NMN to […] adenine dinucleotide (NAD^+) by nicotinamide mononucleotide adenylyltransferase 1 (NMNAT1) and the subsequent quantification of the generated NAD^+ by a commercial detection kit (NAD/NADH-Glo™ Assay from Promega, #G9072).
N-terminally His6-tagged recombinant full length human NAMPT and N-terminally His6-tagged recombinant full length human NMNAT1, both expressed in E. coli and purified via Ni-NTA-affinity chromatography and consecutive size exclusion chromatography, were used as enzymes.
For the assay 50 nl of a 100 fold concentrated solution of the test compound in DMSO was pipetted into a white low volume 384 well microtiter plate (Greiner Bio-One, Frickenhausen, Germany), 2.5 μl of a solution of NAMPT in aqueous NMNAT1-containing assay buffer [50 mM Tris/HCl pH 7.5, 12 mM MgCl2, 0.6 mM adenosine-tri-phosphate (ATP), 1 nM NMNAT1, 0.02% (w/v) bovine serum albumin (Sigma-Aldrich #P7906), 0.001% (v/v) Tween-20 (Sigma-Aldrich #P7949)] were added and the mixture was incubated for 15 min at 22° C. to allow pre-binding of the test compounds to the enzyme before the start of the enzyme reaction. Then the reaction was started by the addition of 2.5 μl of a solution of NAM (300 nM=>final conc. in the 5 μl assay volume is 150 nM, Sigma-Aldrich #^47865) and 5-phosphorylribose-1-pyrophosphate pentasodium salt (PRPP, 1.2 μM=>final conc. in the 5 μl assay volume is 0.6 μM, Sigma-Aldrich P8296) in assay buffer and the resulting mixture was incubated for a reaction time of 20 min at 22° C. The concentration of NAMPT was adjusted depending of the activity of the enzyme lot and was chosen appropriate to have the assay in the linear range, typical final concentration in the 5 μl assay volume was 0.16 nM.
The resulting mixture was incubated 2 h at 22° C. to allow a steady-state of the detection system. Subsequently the generated luminescence was measured in a suitable luminescence reader, e.g. a Viewlux™ (Perkin-Elmer), and taken as a measure for the generated NAD^+.

A549 C4.4a B4 = test: Cell proliferation assay, Cell Titer Glo (CTG) method, A549 C4.4a B4; format: cell-based, human
Procedure: (§1) Cell Proliferation Assay for Nampt-ADCs and Nampt-SMOLs
(§2) Cell Titer Glo (CTG) Method
(§3) To this end, 75 μL per well CTG solution (Promega, catalog #G755B and G756B) was added to cells in sister plates, incubated for 10 min, and luminescence was measured on a VICTOR V instrument (Perkin Elmer). After incubation for either 72 or 96 hrs (Table 1) in the presence of test compounds, 100 μl per well CTG solution was added to all test wells, incubated for 10 min and luminescence was measured on a VICTOR V instrument. […] The DRC software is a Biobook Spreadsheet that was developed by Bayer AG and Bayer Business Services on the IDBS E-Workbook Suite platform (IDBS: ID Business Solutions Ltd., Guildford, UK).

MDA-MB-453 = test: Cell proliferation assay, Cell Titer Glo (CTG) method, MDA-MB-453; format: cell-based
Procedure: as §1, §2, §3

THP-1 = test: Cell proliferation assay, Cell Titer Glo (CTG) method, THP-1; format: cell-based, human; conditions: 72 h
Procedure: as §1, §2, §3

U251 MG = test: Cell proliferation assay, Cell Titer Glo (CTG) method, U251 MG; format: cell-based
Procedure: as §1, §2, §3

[1] = Homo sapiens, A549, 72 h, Table 2, read-out: A549 C4.4a B4 72 h IC50
[2] = Homo sapiens, MDA-MB-453, 72 h, Table 2, read-out: MDA-MB-453 72 h IC50
[3] = Homo sapiens, U-251, 72 h, Table 2
[4] = Table 2, 72 h, read-out: A549 C4.4a B4 72 h IC50
[5] = Table 3 (ADCs), 72 h, read-out: A549 C4.4a 72 h IC^50
[6] = Table 3 (ADCs), DSMZ cells, 72 h, read-out: MDA-MB-453 DSMZ 72 h IC^50

T1 sequence (P43490 whole entry): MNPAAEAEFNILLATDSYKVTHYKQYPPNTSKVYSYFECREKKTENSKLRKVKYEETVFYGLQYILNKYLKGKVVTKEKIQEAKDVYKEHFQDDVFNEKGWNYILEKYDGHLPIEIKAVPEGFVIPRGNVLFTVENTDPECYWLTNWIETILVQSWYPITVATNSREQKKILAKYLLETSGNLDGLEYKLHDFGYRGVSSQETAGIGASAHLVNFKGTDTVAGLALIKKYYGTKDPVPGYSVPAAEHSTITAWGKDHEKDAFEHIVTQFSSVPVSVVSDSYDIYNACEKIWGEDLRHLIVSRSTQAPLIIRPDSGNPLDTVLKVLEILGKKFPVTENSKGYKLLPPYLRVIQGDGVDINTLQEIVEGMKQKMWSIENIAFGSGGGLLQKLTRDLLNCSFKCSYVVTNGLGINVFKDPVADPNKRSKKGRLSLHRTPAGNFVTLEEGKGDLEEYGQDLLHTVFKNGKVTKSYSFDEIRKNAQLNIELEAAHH

Row | Compound | pIC50 (human NAMPT) | pIC50 (A549 C4.4a B4; [1]) | also measured
1 | 2 or 3-{[(2R)-2-Amino-2-carboxyethyl]sulfanyl}-4-{[2-({6-[3-{4-[(1,3-dihydro-2H-pyrrolo[3,4-c]pyridine-2-carbonyl)amino]phenyl}-6-oxo-5-(quinolin-5-yl)pyridazin-1(6H)-yl]hexyl}amino)-2-oxoethyl]amino}-4-oxobutanoic Acid [Example 31M] | 9.59 and 9.51 | – | –
2 | O=C(Nc1ccc(-c2cc(-c3ccc4[nH]ncc4c3)c(=O)n(CC(F)(F)F)n2)cc1)N1Cc2ccncc2C1 [Example 22, N-{4-[5-(1H-indazol-5-yl)-6-oxo-1-(2,2,2-trifluoroethyl)-1,6-dihydropyridazin-3-yl]phenyl}-1,3-dihydro-2H-pyrrolo[3,4-c]pyridine-2-carboxamide] | 9.95 and 9.84 | 8.31 | pIC50 (MDA-MB-453; [2]): > 10.52
3 | O=C(Nc1ccc(-c2cc(-c3cccc4ncccc34)c(=O)[nH]n2)cc1)N1Cc2ccncc2C1 [Example 4, N-{4-[6-Oxo-5-(quinolin-5-yl)-1,6-dihydropyridazin-3-yl]phenyl}-1,3-dihydro-2H-pyrrolo[3,4-c]pyridine-2-carboxamide] | 8.94 and 8.91 | < 6.52 | pIC50 (THP-1; Homo sapiens, THP-1, Table 2): 10.77; pIC50 (U251 MG; [3]): 9.84
4 | O=C(Nc1ccc(C2=NNC(=O)C(c3cccc4ncccc34)(C(F)(F)F)C2)cc1)N1Cc2ccncc2C1 (racemic) [Example 14, N-{4-[6-oxo-5-(quinolin-5-yl)-5-(trifluoromethyl)-1,4,5,6-tetrahydropyridazin-3-yl]phenyl}-1,3-dihydro-2H-pyrrolo[3,4-c]pyridine-2-carboxamide] | 9.50 and 9.41 | – | –
5 | NCCCCCCN1N=C(c2ccc(NC(=O)N3Cc4ccncc4C3)cc2)CC(c2ccc3cccnc3c2)C1=O (stereo not shown) [Example 45, N-{4-[1-(6-Aminohexyl)-6-oxo-5-(quinolin-7-yl)-1,4,5,6-tetrahydropyridazin-3-yl]phenyl}-1,3-dihydro-2H-pyrrolo[3,4-c]pyridine-2-carboxamide hydrogen chloride] | 9.65 and 9.62 and 9.56 and 9.46 | 7.49 | pIC50 (A549 C4.4a B4; [4]): 7.30
6 | O=C(Nc1ccc(-c2cc(-c3cccc4[nH]cnc34)c(=O)[nH]n2)cc1)N1Cc2ccncc2C1 [Example 26, N-{4-[5-(1H-Benzimidazol-4-yl)-6-oxo-1,6-dihydropyridazin-3-yl]phenyl}-1,3-dihydro-2H-pyrrolo[3,4-c]pyridine-2-carboxamide] | 9.78 and 9.68 | 6.95 | pIC50 (MDA-MB-453; [2]): > 10.52
7 | NCCCCCCN1N=C(c2ccc(NC(=O)N3Cc4ccncc4C3)cc2)CC(c2cccc3ncccc23)(C(F)(F)F)C1=O (stereo not shown) [Example 15, N-{4-[1-(6-Aminohexyl)-6-oxo-5-(quinolin-5-yl)-5-(trifluoromethyl)-1,4,5,6-tetrahydropyridazin-3-yl]phenyl}-1,3-dihydro-2H-pyrrolo[3,4-c]pyridine-2-carboxamide] | 9.51 and 9.44 | – | pIC50 (MDA-MB-453; [2]): > 10.52
8 | NCCCCCCN1N=C(c2ccc(NC(=O)N3Cc4ccncc4C3)cc2)CC(c2cccc3ncccc23)C1=O (stereo not shown) [Example 3, N-{4-[1-(6-Aminohexyl)-6-oxo-5-(quinolin-5-yl)-1,4,5,6-tetrahydropyridazin-3-yl]phenyl}-1,3-dihydro-2H-pyrrolo[3,4-c]pyridine-2-carboxamide] | 9.68 and 9.67 | – | –
9 | NCCCCn1nc(-c2ccc(NC(=O)N3Cc4ccncc4C3)cc2)cc(-c2cccc3ncccc23)c1=O [Example 5, N-{4-[1-(4-Aminobutyl)-6-oxo-5-(quinolin-5-yl)-1,6-dihydropyridazin-3-yl]phenyl}-1,3-dihydro-2H-pyrrolo[3,4-c]pyridine-2-carboxamide] | 9.83 and 9.75 | – | –
10 | O=C(Nc1ccc(C2=NNC(=O)[C@@](c3cccc4ncccc34)(C(F)(F)F)C2)cc1)N1Cc2ccncc2C1 [Example 12, N-{4-[(5R)-6-oxo-5-(quinolin-5-yl)-5-(trifluoromethyl)-1,4,5,6-tetrahydropyridazin-3-yl]phenyl}-1,3-dihydro-2H-pyrrolo[3,4-c]pyridine-2-carboxamide] | 9.27 and 9.26 | 9.33 | pIC50 (THP-1; Homo sapiens, THP-1, Table 2): > 11.52; pIC50 (U251 MG; [3]): > 10.52
11 | O=C1NN=C(c2ccc(NC(=O)N3Cc4ccncc4C3)cc2)CC1c1cccc2ncccc12 (stereo not shown) [Example 1, N-{4-[6-Oxo-5-(quinolin-5-yl)-1,4,5,6-tetrahydropyridazin-3-yl]phenyl}-1,3-dihydro-2H-pyrrolo[3,4-c]pyridine-2-carboxamide] | 8.97 and 8.92 and 8.90 and 8.86 | – | pIC50 (THP-1; Homo sapiens, THP-1, Table 2): > 11.52
12 | N[C@@H](CSC1CC(=O)N(CCCCCC(=O)NCCCCCCn2nc(-c3ccc(NC(=O)N4Cc5ccncc5C4)cc3)cc(-c3cccc4ncccc34)c2=O)C1=O)C(=O)O (stereo partly drawn) [Example 29M, S-{1-[6-({6-[3-{4-[(1,3-Dihydro-2H-pyrrolo[3,4-c]pyridine-2-carbonyl)amino]phenyl}-6-oxo-5-(quinolin-5-yl)pyridazin-1(6H)-yl]hexyl}amino)-6-oxohexyl]-2,5-dioxopyrrolidin-3-yl}-L-cysteine] | 9.36 and 9.20 | – | –
13 | N-[2 or 3-{[(2R)-2-amino-2-carboxyethyl]sulfanyl}-3-carboxypropanoyl]glycyl-N-{6-[3-{4-[(1,3-dihydro-2H-pyrrolo[3,4-c]pyridine-2-carbonyl)amino]phenyl}-6-oxo-5-(quinolin-5-yl)-5,6-dihydropyridazin-1(4H)-yl]hexyl}-N^6-(26-oxo-2,5,8,11,14,17,20,23-octaoxahexacosan-26-yl)-L-lysinamide [Example 36M] | 8.99 and 8.98 | – | pIC50 (A549 C4.4a B4; [4]): 6.52; pIC50 (MDA-MB-453; Table 2, 72 h, read-out: MDA-MB-453 72 h IC50): 7.74
14 | 2 or 3-{[(2R)-2-Amino-2-carboxyethyl]sulfanyl}-4-{[2-({6-[3-{4-[(1,3-dihydro-2H-pyrrolo[3,4-c]pyridine-2-carbonyl)amino]phenyl}-6-oxo-5-(quinolin-5-yl)-5,6-dihydropyridazin-1(4H)-yl]hexyl}amino)-2-oxoethyl]amino}-4-oxobutanoic Acid [Example 30M] | – | – | pIC50 (A549 C4.4a B4; [5]): < 6.52; pIC50 (MDA-MB-453; [6]): 8.00; pIC50 (THP-1; Table 3 (ADCs), read-out: THP-1 72 h IC^50): 7.09; pIC50 (U251 MG; Table 3 (ADCs), 72 h, read-out: U-251 72 h IC^50): < 6.52
15 | Cc1nnc(C2CC(c3ccc(NC(=O)N4Cc5ccncc5C4)cc3)=NN(CCCCCCN)C2=O)o1 (stereo not shown) [Example 11, N-{4-[1-(6-Aminohexyl)-5-(5-methyl-1,3,4-oxadiazol-2-yl)-6-oxo-1,4,5,6-tetrahydropyridazin-3-yl]phenyl}-1,3-dihydro-2H-pyrrolo[3,4-c]pyridine-2-carboxamide] | 9.50 and 9.42 | < 6.52 | pIC50 (THP-1; Homo sapiens, THP-1, Table 2): > 11.52; pIC50 (U251 MG; [3]): 8.55
16 | [(32S,39S)-39-carboxy-32-({6-[(5S)-3-{4-[(1,3-dihydro-2H-pyrrolo[3,4-c]pyridine-2-carbonyl)amino]phenyl}-6-oxo-5-(quinolin-5-yl)-5,6-dihydropyridazin-1(4H)-yl]hexyl}carbamoyl)-26,34,37-trioxo-2,5,8,11,14,17,20,23-octaoxa-27,33,36-triazanonatriacontan-39-yl]sulfanediyl [Example 36Db] | – | – | pIC50 (A549 C4.4a B4; [5]): 8.50; pIC50 (MDA-MB-453; [6]): 8.14
17 | NCCCCN1N=C(c2ccc(NC(=O)N3Cc4ccncc4C3)cc2)CC(c2cccc3ncccc23)C1=O (stereo not shown) [Example 2, N-{4-[1-(4-Aminobutyl)-6-oxo-5-(quinolin-5-yl)-1,4,5,6-tetrahydropyridazin-3-yl]phenyl}-1,3-dihydro-2H-pyrrolo[3,4-c]pyridine-2-carboxamide] | 9.46 and 9.44 | – | –
